# Tested on: profibrotic genes
# Assay: Gene expression (RNA sequencing) in surgical incision-induced dermal fibrosis model
# Format: in vivo, Göttingen minipig
# Procedure: Minipig skin is more similar to human skin than rodent skin, and dermal delivery of topical ALK-5 kinase inhibitor Compound 1 in minipigs is expected to be reflective of treatment of human skin. Therefore, a model of surgical incision-induced dermal fibrosis was established in minipigs and the effects of topical Compound 1 were evaluated by visual assessment, histologic examination and gene expression by RNA sequencing.
# The study was conducted in 4 female Göttingen SPF minipigs. On Day 1, eight full thickness incisional wounds, four on each side, were performed on each animal. Compound 1 0% (Vehicle), 0.1%, 0.3% or 1% was applied topically twice daily for 14 days from Day 7 through Day 20 on each incision. All animals received a dose volume of 160 μl per wound ([…] applied to a 32 cm2 area surrounding each incision). Clinical signs, visual observations of incisions, body weight and food consumption were recorded during the in-life period. At necropsy (Day 21) two biopsies were collected from each incision for histopathology and gene expression analysis.
# For gene expression analysis, a 0.3 cm punch biopsy was collected from the incisional wounds. Samples were collected and stored overnight in prefilled tubes containing RNAlater at 5±3° C., and then transferred to a freezer and stored at ˜−20° C. The biopsies collected were then thawed and subjected to RNA purification and then generation of mRNA-enriched cDNA libraries for Illumina sequencing. RNA sequencing was performed to a depth of ˜15 million reads followed by bioinformatic analysis, including differential gene expression analysis.
# [1] = topical 0.1%, 0.3% or 1% twice daily Day 7-20, biopsy Day 21
compound,measurement,setting,value
Cc1cccc(-n2ncc(C)c2-c2cc3cnccc3s2)n1 [Compound 1],Gene expression of the profibrotic genes investigated,FIG. 7,consistent tendency to dose-dependently reduce gene expression
same,"Change in gene expression, ADAM12",[1],−52%
same,"Change in gene expression, ADAMTS14",[1],−52%
same,"Change in gene expression, BMP1",[1],−47%
same,"Change in gene expression, COL1A1",[1],−49%
same,"Change in gene expression, COL1A2",[1],−48%
same,"Change in gene expression, COL3A1",[1],−49%
same,"Change in gene expression, MMP2",[1],−52%
same,"Change in gene expression, MMP9",[1],−54%
same,"Change in gene expression, MMP14",[1],−42%
same,"Change in gene expression, TGF-β1",[1],up to −23%
same,"Change in gene expression, TGF-β2",[1],≤ −32%
same,"Change in gene expression, TGF-β3",[1],≤ −49%
same,"Change in gene expression, THBS4",[1],−67%
same,"Change in gene expression, TIMP1",[1],−17%
same,"Change in gene expression, TIMP2",[1],−46%
